Here are results for three compounds from PMC3828267 (PLoS ONE, 2013).

Series [1] addresses T1, α3β4 AChRs (Homo sapiens, UniProt P30926+P32297).
T1 construct: expressed in transfected cells
In words: Acute activation, FLEXStation membrane potential dye, α3β4 cell line. In kind it is cell-based. To be noted: α3β4. The method, then:
(§1) The parental cell line used for transfections was tsA201, derived from the human embryonic kidney cell line (HEK) 293 [33]. […] The cell line permanently expressing α3β4 AChRs has been described, [34]. A stable cell line expressing functional α7 AChRs was prepared by initially transfecting the tsA201 cell line with cDNA for α7 and subsequently transfecting with cDNA for the AChR-selective chaperone, human RIC-3.
(§2) Responses to nicotinic agonists were determined using a FLEXStation microplate fluorometer (Molecular Devices, Sunnyvale, CA) as described. For cell lines expressing α4β2 and α3β4 AChRs, the cells were plated at 10^5 cells/ml (100 µl/well) in black-walled clear-bottom 96 well plates (Costar, Fisher Scientific, Pittsbugh, PA), and incubated for 48 hours prior to assaying responses to various nicotinic agonists. The α7/RIC-3 expressing cells were plated at 5×10^5/ml in black-walled clear-bottom 96 well BioCoat plates (BD Biosciences, Franklin Lakes, NJ) in the continued presence of VPA and PBA, with the addition of 5% human AB serum (Pel-Freez Biologicals, Rogers, AR) to further increase expression of α7 [35]. The cells were then grown for 24 hours prior to the assay.
(§3) To measure responses to various nicotinic agonists, 100 µl of a fluorescent dye which is sensitive to changes in membrane potential (Molecular Devices) was added to the wells. The dye was prepared according to the manufacturer’s instructions, with the addition of atropine (0.5 µM) to block muscarinic responses. The plates were then incubated at 37°C for one hour prior to the assay. Serial dilutions of agonists were then prepared in Hanks Balanced Salt Solution (HBSS) in V-shaped 96-well plates (Fisher Scientific Co, Pittsburgh, PA). Fluorescent responses were measured in the FLEX Station at 25°C, with an excitation wavelength of 530 nm and an emission wavelength of 565 nm. Various agonists (50 µl) were added after the first 20 seconds and responses were followed for 60–120 seconds.
(§4) Data were graphed using GraphPad Prism software. Non-linear models (sigmoidal dose-response with variable slope or two site competition) were used to fit the concentration response curves. The EC50 and IC50 were calculated from the curves. Kaleidagraph software was used to determine Hill slopes and standard errors of the EC50 and IC50.

For series [2], the system named is (α4β2)2α4 AChRs. To be noted: cited from earlier work.
In series [3] the target is T2, α7 AChRs (Homo sapiens, UniProt P36544). Briefly: Chronic desensitization (16 h agonist, then ACh response) and calculated smoldering activation, α7 cell line. In kind it is cell-based. More on the design: expressed in transfected cells; grown in VPA and PBA. To be noted: α7: 10 µM ACh. As for the experimental part:
(§5) To measure desensitization, plates were prepared as for agonist assays. Sixteen hours prior to the assay, serial dilutions of agonists, prepared in regular growth medium, were added to the plates. One hour before the assay, the membrane potential-sensitive fluorescent dye with 0.5 µM atropine was added to the wells. […] Each data point represents the average of peak values for individual dose response curves from 4–8 wells.
as §4
(§6) Responses for the three different AChRs are shown in Figures 3, 4, 5, 6, along with the dose response curves for activation (the same as shown in Figure 2). The range of concentrations at which both sustained activation and desensitization can occur (“smoldering activation”) was calculated by multiplying the acute response to agonists at each concentration by the fractional response remaining after desensitization.

On the set-up of series [4]: method as in PMID 22899751. To be noted: mice treated with 2 mg/kg; cited from earlier work.
Series [5] addresses T3, human α4β2 AChRs (Homo sapiens, UniProt P17787+P43681).
T3 construct: expressed in transfected cells
Briefly: Acute activation, FLEXStation membrane potential dye, α4β2 cell line. Format: cell-based. As for the experimental part:
as §1, §2, §3, §4

Series [6] has as its target T4, (α4β2)2β2 AChRs (Homo sapiens, UniProt P17787+P43681).
T4 construct: expressed in transfected cells
In words: Sazetidine-A desensitization of α4β2 cell line enriched for (α4β2)2β2 by β2 transfection and nicotine. In kind it is cell-based. The note with it: 6 h sazetidine-A, 3 µM and 100 µM ACh curves overlapped. An excerpt: To determine which stoichiometry of α4β2 AChRs was affected by sazetidine-A, we performed short term transfection of β2 subunits into the α4β2 expressing cell line. To increase the expression of the higher sensitivity (α4β2)2β2 stoichiometry, the cell line expressing α4 and β2 was cotransfected with human β2 (pRc-CMV/Geneticin) using the FuGene6 transfection agent (Roche Diagnostics, Indianapolis, IN).

Series [7] concerns the target T2, α7 AChRs. Briefly: Acute activation, FLEXStation membrane potential dye, α7/RIC-3 cell line. In kind it is cell-based. Further details: expressed in transfected cells; grown in VPA and PBA. The note with it: α7. The method, then: as §1, §2, §3, §4
Series [8] concerns the target T1, α3β4 AChRs. Briefly: Chronic desensitization (16 h agonist, then ACh response) and calculated smoldering activation, α3β4 cell line. In kind it is cell-based. To be noted: α3β4: 1.0 mM ACh. As for the experimental part:
as §5, §4, §6

The target in series [9] is T3, human α4β2 AChRs. Briefly: Chronic desensitization (16 h agonist, then ACh response) and calculated smoldering activation, α4β2 cell line. Format: cell-based. To be noted: for IC50: overnight (16 h) agonist, first (more sensitive) component, read-out: Desensitization IC50; for Hill (desensitization): first component. As for the experimental part: as §5, §4, §6
The target of series [10] is T4, (α4β2)2β2 AChRs. To be noted: cited from earlier work.
Series [11] has as its target T2, α7 AChRs. The note with it: α7, antagonist 10 µM applied after 10 minutes. As for the experimental part:
(§7) Responses were monitored for 10 minutes, and then specific antagonists were added and responses recorded for another two minutes.

Series [12] concerns the target T1, α3β4 AChRs. In words: Smoldering activation following acute desensitization, α3β4. In kind it is cell-based. The note with it: α3β4, antagonist 10 µM applied after 10 minutes. The method, then:
as §7

The mark [13] stands for this setting: overnight (16 h) agonist, read-out: Desensitization IC50.

The term EC50 denotes the concentration giving half of the maximal effect. By IC50 is commonly meant the concentration needed to halve the response being measured.

Read-outs that look alike come from different tables or passages of the source. Bounds are passed on as bounds.

T3 sequence (P43681 29-627 limits assumed): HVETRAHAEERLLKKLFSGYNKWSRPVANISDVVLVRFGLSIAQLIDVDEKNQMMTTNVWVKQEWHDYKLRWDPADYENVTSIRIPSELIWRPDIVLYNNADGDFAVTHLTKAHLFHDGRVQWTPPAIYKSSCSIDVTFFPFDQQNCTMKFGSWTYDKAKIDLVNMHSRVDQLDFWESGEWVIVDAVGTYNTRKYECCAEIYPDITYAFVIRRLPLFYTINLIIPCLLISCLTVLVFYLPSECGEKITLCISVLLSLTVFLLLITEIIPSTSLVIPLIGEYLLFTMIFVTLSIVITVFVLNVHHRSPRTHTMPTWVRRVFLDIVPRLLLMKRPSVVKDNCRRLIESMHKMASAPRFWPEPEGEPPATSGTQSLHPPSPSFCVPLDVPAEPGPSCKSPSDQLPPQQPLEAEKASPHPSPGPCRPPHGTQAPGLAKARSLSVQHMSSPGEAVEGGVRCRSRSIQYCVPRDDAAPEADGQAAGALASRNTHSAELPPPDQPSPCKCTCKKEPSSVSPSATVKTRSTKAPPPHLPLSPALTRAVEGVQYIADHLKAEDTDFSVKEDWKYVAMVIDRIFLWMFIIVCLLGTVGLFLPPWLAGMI
T3 sequence (P17787 26-502): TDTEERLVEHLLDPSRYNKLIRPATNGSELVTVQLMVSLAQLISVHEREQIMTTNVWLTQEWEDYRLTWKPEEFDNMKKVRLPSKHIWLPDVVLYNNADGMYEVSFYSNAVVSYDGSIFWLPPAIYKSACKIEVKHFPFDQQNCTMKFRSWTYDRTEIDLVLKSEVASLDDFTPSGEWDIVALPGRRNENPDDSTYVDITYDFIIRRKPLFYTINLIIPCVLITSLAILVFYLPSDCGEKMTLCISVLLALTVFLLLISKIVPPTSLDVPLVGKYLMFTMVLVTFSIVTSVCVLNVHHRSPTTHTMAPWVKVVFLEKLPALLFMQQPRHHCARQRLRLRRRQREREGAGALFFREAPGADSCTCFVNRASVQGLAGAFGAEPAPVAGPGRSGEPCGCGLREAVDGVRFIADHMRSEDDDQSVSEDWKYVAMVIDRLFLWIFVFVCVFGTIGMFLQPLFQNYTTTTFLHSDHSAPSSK
T4 sequence (P43681 29-627 limits assumed): as the sequence (P43681 29-627 limits assumed) above
T4 sequence (P17787 26-502): as the sequence (P17787 26-502) above
T2 sequence (P36544 23-502): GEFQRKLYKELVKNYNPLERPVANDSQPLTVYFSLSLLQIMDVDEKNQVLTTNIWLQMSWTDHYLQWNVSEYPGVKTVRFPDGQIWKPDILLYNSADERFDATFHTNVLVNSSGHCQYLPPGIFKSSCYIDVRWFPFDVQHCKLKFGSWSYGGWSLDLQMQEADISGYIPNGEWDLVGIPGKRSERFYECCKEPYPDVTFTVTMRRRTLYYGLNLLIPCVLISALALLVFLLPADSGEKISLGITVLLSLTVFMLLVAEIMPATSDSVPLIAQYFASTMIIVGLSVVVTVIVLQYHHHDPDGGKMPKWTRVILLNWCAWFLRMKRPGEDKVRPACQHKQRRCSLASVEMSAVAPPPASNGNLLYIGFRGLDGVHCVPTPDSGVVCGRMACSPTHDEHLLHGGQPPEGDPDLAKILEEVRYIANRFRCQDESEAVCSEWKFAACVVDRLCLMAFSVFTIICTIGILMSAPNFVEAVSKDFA
T1 sequence (P32297 32-505): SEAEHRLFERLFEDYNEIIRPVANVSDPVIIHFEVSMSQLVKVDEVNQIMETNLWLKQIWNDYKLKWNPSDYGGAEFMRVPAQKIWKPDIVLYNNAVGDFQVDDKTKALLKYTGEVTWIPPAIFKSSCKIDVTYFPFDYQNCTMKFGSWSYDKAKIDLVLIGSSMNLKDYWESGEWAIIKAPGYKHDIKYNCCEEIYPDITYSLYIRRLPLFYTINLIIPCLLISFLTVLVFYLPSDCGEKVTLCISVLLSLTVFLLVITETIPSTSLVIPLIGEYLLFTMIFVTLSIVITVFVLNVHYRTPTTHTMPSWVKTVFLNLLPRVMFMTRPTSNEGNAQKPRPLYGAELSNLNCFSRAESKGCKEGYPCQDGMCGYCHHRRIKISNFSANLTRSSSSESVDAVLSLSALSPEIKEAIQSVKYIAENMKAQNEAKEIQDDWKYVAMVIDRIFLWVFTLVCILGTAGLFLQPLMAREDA
T1 sequence (P30926 22-498): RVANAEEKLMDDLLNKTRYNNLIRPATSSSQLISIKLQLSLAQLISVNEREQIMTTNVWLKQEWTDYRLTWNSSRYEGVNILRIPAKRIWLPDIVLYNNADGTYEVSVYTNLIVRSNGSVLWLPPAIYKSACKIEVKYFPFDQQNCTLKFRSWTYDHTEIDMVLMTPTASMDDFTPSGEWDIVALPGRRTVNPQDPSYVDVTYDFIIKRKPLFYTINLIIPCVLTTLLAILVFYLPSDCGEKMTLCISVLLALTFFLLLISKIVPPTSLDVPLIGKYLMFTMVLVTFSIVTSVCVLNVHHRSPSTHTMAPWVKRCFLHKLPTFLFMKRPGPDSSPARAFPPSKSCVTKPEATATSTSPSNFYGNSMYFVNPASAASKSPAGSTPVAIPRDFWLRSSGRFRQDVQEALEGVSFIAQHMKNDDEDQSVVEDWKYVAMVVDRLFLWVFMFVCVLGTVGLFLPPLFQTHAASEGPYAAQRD

Take `OCCCCC#Cc1cncc(OC[C@@H]2CCN2)c1` [Sazetidine-A]: the “Agonist type (full or partial)” value in [1] was “full agonist”; in [5] (α4β2, mixture of stoichiometries), “partial agonist”; in [7], “full agonist”. The “Efficacy (%) (relative to ACh)” value is listed as 100% in series [1], 44% in series [5] (α4β2) and 100% in series [7]. The “Hill (activation)” value is given as 1.3 in series [1]; 1.2 in [5] (α4β2, higher sensitivity component or monophasic curve); 1.6 in series [7]. For the same compound, the EC50 in [1] (read-out: Activation EC50) stood at 170 ± 30 nM; in [5] (α4β2 cell line, mixed stoichiometries, higher sensitivity component where two-site fit, else monophasic, read-out: Activation EC50), 2.3 ± 0.3 nM; in series [7] (read-out: Activation EC50), 1200 ± 80 nM. Further, in series [2] ((α4β2)2α4, Xenopus oocytes expressing human α4 and β2 subunits), the Activity is 6%. Besides, the Agonist type entry in series [2] ((α4β2)2α4, concatenated AChRs in Xenopus oocytes) was “partial agonist with very low efficacy”; in [10] ((α4β2)2β2, Xenopus oocytes expressing human α4 and β2 subunits), “full agonist”; in [10] ((α4β2)2β2, concatenated AChRs in Xenopus oocytes), “full agonist”. Also, the Efficacy in series [2] ((α4β2)2α4 stoichiometry, concatenated AChRs in Xenopus oocytes) is reported as less than 1%. Also, the “Hill (desensitization)” value in [3] is −2.9; in series [8] it was −0.5; in series [9] (α4β2: 3 µM ACh), −0.9; in [9] (α4β2: 100 µM ACh), −0.6. For the same compound, the “Intercept of Activation and Desensitization Curves” value in series [3] is recorded as 1.5 µM; in [9] (α4β2: 3 µM ACh ((α4β2)2β2 stoichiometry), centre of smoldering activation), 0.0015 µM; in series [9] (α4β2: 3 µM ACh ((α4β2)2β2 stoichiometry), centre of smoldering activation, listed as sazetidine-A) it was “around 0.0015 µM”; in [9] (α4β2: 100 µM ACh (both stoichiometries)), 0.002 µM. Moreover, the half-maximal inhibitory concentration (IC50) in [3] (setting [13]) was 3.5 ± 0.4 µM; in series [8] (setting [13]) it was 330 ± 100 nM; in [9] (α4β2: 3 µM ACh), 0.48 ± 0.02 nM; in [9] (α4β2: 100 µM ACh), 0.26 ± 0.2 nM. Besides, the Brain levels in [4] is 0.15 µM. In addition, the Serum levels in series [4] was 1.6 µM. In addition, in series [6], the “Stoichiometry of α4β2 desensitized” value is “desensitizes only the (α4β2)2β2 stoichiometry”. Further, the “Area of overlap of activation and desensitization curves centered at” value in series [9] ((α4β2)2β2 AChRs, 3 µM ACh) is reported as 1.5 nM. Besides, in series [9] (prolonged exposure, up to high concentrations), the “Extent of desensitization of α4β2 AChRs to ACh” value was “full desensitization was not reached even at high concentrations”. In series [9] (α4β2, assayed with 100 µM ACh), the “Concentration from which the desensitization dose response curve shows a plateau” value was “around 10 nM”.
For the compound `CCN1C[C@]2(COC(=O)c3ccccc3N3C(=O)C[C@H](C)C3=O)CC[C@H](OC)[C@@]34[C@@H]5C[C@H]6[C@H](OC)[C@@H]5[C@](O)(C[C@@H]6OC)[C@@](O)([C@@H](OC)[C@H]23)[C@@H]14` [MLA, methyllycaconitine], the “Effect of antagonist on residual agonist response” value in [11] is on record as “abrogated”.
As for `CNC1(C)C2CCC(C2)C1(C)C` (stereo not shown) [MCA, mecamylamine], the “Effect of antagonist on sustained agonist response” value in [12] is listed as “abrogated”.
